This note sets out measurements from publication PMC7982521, “Studies on the Changes of Pharmacokinetics Behaviors of Phytochemicals and the Influence on Endogenous Metabolites After the Combination of Radix Bupleuri and Radix Paeoniae Alba Based on Multi-Component Pharmacokinetics and Metabolomics” (Frontiers in Pharmacology, 2021).

This series is described as follows: Multi-component pharmacokinetics in rat plasma after oral administration of RB, RPA or RB-RPA extracts (UPLC-HRMS, non-compartmental analysis). In kind it is in vivo, Sprague-Dawley rats. The settings on record: for AUC0-t / AUC0-∞ / Cmax / t1/2 / tmax: rat plasma, mean ± SD, n = 7. Here is the method:
(Beijing, China, No. SCXK2018-0011). […] All rats were free to access the water and food until 12 h before the experiment. The animal study was reviewed and approved by the Experimental Animal Ethical Committee of Modern Research Center for Traditional Chinese Medicine, Shanxi University (animal ethic approval number: SXULL2018018), and all experimental procedures were carried out in accordance with the NIH Guide for the Care and Use of Laboratory Animals. After one week of adaptation, twenty-one rats were divided into three groups randomly, with seven rats in each group: 1) RPA group, were oral administration of Radix Paeoniae Alba extract (45 g-herb/kg); 2) RB group, were oral administration of Radix Bupleuri extract (45 g-herb/kg); 3) RB-RPA group, were oral administration of powder mixture of Radix Bupleuri and Radix Paeoniae Alba extracts (containing 45 g-herb/kg Radix Bupleuri and 45 g-herb/kg Radix Paeoniae Alba). […] Each group received intragastric administration with a volume of 10 ml/kg (rat body weight). […] All rats were free to access the water during the experiment. The blood samples at each time point were collected from seven rats. The blood samples were centrifuged at 4,000 rpm for 10 min and frozen at -80°C until analysis. Using a Thermo-Fisher Dionex UltiMate 3000 UHPLC system coupled with a Q Exactive Orbitrap-MS (Thermo-Fisher, United States) and Xcalibur workstation (Thermo-Fisher Scientific Inc.,Waltham, MA, United States) to acquire UPLC-HRMS raw data. Chromatographic separation of herb extracts and plasma samples was performed on an Acquity UPLC HSS T3 column (2.1 mm × 100 mm, 1.8 μm) maintained at 37°C. The flow rate was 0.2 ml/min and the injection volume was 5 μL. […] Mass spectrometry detection conditions were set as follows: the MS data were acquired under positive and negative ionization modes via heated electrospray ionization (HESI) source. […] The Q Exactive Orbitrap-MS has a fast positive and negative ion switching function, which could switch between positive-negative ion modes during the analysis of the same sample. So, we applied the method of switching ion modes in the detection process to quantify all analytes better. […] UPLC/MS/MS calibration and quantitation data were processed with Xcalibur workstation (Thermo-Fisher Scientific Inc., Waltham, MA, United States). For the eight components with standard reference, calculating their concentrations from the standard curves. For the other 30 components without standard reference, their concentrations were analyzed following the regression equations of homologous compounds ([Qiao et al., 2012]): paeoniflorin for P1 and M1 to M3; methylgallate for M4 to M10; saikosaponin […] and […]; saikosaponin […]; saikosaponin […]; saikosaponin B2 for P11 and M25 to […].

[1] abbreviates: oral RB single extract 45 g-herb/kg.
Setting [2] is: oral RB-RPA mixed extracts (45 g-herb/kg RB + 45 g-herb/kg RPA).
Where [3] appears, read: oral administration of mixed extracts RB-RPA.
Setting [4] is: oral administration of single extract RPA.

The term Cmax denotes the highest concentration seen after dosing.

On to `C[C@H]1O[C@@H](O[C@H]2CC[C@@]3(C)[C@@H](CC[C@]4(C)[C@@H]3C=C[C@]35OC[C@@]6(CCC(C)(C)C[C@H]63)[C@H](O)C[C@]54C)[C@]2(C)CO)[C@H](O)[C@@H](O[C@@H]2O[C@H](CO)[C@@H](O)[C@H](O)[C@H]2O)[C@H]1O` [Saikosaponin D], for which, under setting [1], the AUC0-t was determined as 67.73 ± 18.62 ng·h/mL, the “AUC0-∞” value was 69.92 ± 17.38 ng·h/mL, the Cmax is 42.84 ± 11.53 ng/mL and the t1/2 worked out at 2.01 ± 0.34 h. Besides, under setting [1], the tmax turned out to be 0.50 ± 0.16 h. Under setting [2], the AUC0-t was 99.98 ± 31.48 ng·h/mL, the “AUC0-∞” value came out at 103.56 ± 33.67 ng·h/mL, the t1/2 came to 2.98 ± 0.89 h and the tmax came to 0.87 ± 0.38 h. In addition, under “rat, oral RB-RPA group vs single herbal group”, the “change of t1/2 after combination” value is listed as “longer”.
Regarding Acetyl-saikosaponin B2, under setting [1], the AUC0-t was 16.86 ± 4.34 ng·h/mL, the “AUC0-∞” value was found to be 19.75 ± 3.88 ng·h/mL, the Cmax was 14.82 ± 4.41 ng/mL and the t1/2 is 3.81 ± 1.29 h. Besides, the tmax under setting [1] turned out to be 0.42 ± 0.13 h. Under setting [2], the AUC0-t is 23.18 ± 12.77 ng·h/mL, the “AUC0-∞” value stood at 26.03 ± 13.58 ng·h/mL, the Cmax was determined as 12.94 ± 6.29 ng/mL and the t1/2 was 3.18 ± 1.01 h. Moreover, under setting [2], the tmax was 0.42 ± 0.13 h.
Consider Paeonimetabolin II, for which, under setting [3], the AUC0-t turned out to be 9490.91 ± 4705.90 ng·h/mL, the “AUC0-∞” value stood at 13198.67 ± 4477.34 ng·h/mL, the Cmax stood at 984.50 ± 452.44 ng/mL and the t1/2 was determined as 9.30 ± 2.76 h. In addition, the tmax under setting [3] was 1.17 ± 0.90 h. Under setting [4], the AUC0-t was 6694.27 ± 2468.69 ng·h/mL, the “AUC0-∞” value is 8022.12 ± 2764.81 ng·h/mL, the Cmax worked out at 850.12 ± 292.63 ng/mL and the t1/2 was 9.22 ± 2.04 h. The same compound displayed a tmax under setting [4] of 1.04 ± 0.37 h. Further, under “rat, oral RB-RPA group vs single herbal group (RB or RPA)”, the “change of AUC0-∞ after combination” value is on record as “significantly increased”.
Consider Pyrogallol glucuronide, for which, under setting [3], the AUC0-t was found to be 643.56 ± 348.44 ng·h/mL, the “AUC0-∞” value is 825.47 ± 393.90 ng·h/mL, the Cmax amounted to 47.97 ± 13.98 ng/mL and the t1/2 stood at 10.49 ± 2.78 h. The compound also came in with a tmax under setting [3] of 2.92 ± 1.43 h. For the same compound, under setting [4], the AUC0-t is 262.73 ± 101.68 ng·h/mL, the “AUC0-∞” value was determined as 336.41 ± 159.76 ng·h/mL, the Cmax is 34.21 ± 4.94 ng/mL and the t1/2 was 6.16 ± 2.02 h. The tmax under setting [4] worked out at 2.67 ± 1.85 h. Besides, for the setting “rat, oral RB-RPA vs RPA alone”, the “AUC0-∞ after combination relative to RPA alone” value was determined as 245.38%, the “Cmax after combination relative to RPA alone” value came to 140.22% and the “t1/2 after combination relative to RPA alone” value amounted to 170.29%.
